The term pIC50 denotes the IC50 on a negative log10 scale, so that one unit is a factor of ten.

Our source for the IC50 values is ChEMBL document CHEMBL5120802, “Kumemicinones A-G, Cytotoxic Angucyclinones from a Deep Sea-Derived Actinomycete of the Genus Actinomadura” (J Nat Prod, 2022).

pIC50: −log10 of the molar value.

The assay can be described thus: Cytotoxicity against mouse P388 cells assessed as reduction in cell viability measured after 72 hrs by XTT assay. The conditions noted are these: P388, 72 h. It is filed as functional, cell-based. Background: Tetrazolium assays rely on reduction of a dye to a coloured formazan, in cell work by metabolically active cells.
As to `CC1=C[C@@H]2O[C@]34CC[C@](O)(C1)[C@H]2[C@]3(O)[C@@H](O)c1cccc(O)c1C4=O`, the pIC50 was 4.54.
Next, `CC1=C[C@@H](O)[C@H]2[C@](O)(CC[C@]3(Oc4cccc5c4C(=O)[C@]46CC[C@]7(O)CC(C)=C[C@@H](O)[C@@H]7[C@]4(O6)[C@H]5O)C(=O)c4c(O)cccc4[C@H](O)[C@@]23O)C1`: 5.01; `CC1=CC(=O)C2=C3[C@@H](O)c4cccc(O)c4C(=O)[C@]3(O)CC[C@]2(O)C1`: 4.92; `C[C@@]1(O)C=C[C@H]2[C@](O)(CC[C@]34O[C@]23[C@@H](O)c2cccc(O)c2C4=O)C1`: 5.12.
For `CC1=C[C@@H](O)[C@H]2[C@](O)(CC[C@]34O[C@]23[C@@H](O)c2cccc(O[C@]35CC[C@]6(O)C[C@@](C)(O)C=C[C@@H]6[C@]3(O)[C@@H](O)c3cccc(O)c3C5=O)c2C4=O)C1` the value was 4.97.
Next, `C[C@]1(O)C=C[C@H]2[C@](O)(CC[C@]34O[C@]23[C@@H](O)c2cccc(O)c2C4=O)C1`: 5.74; `CC1=C[C@@H](O)[C@@H]2C(=O)[C@@]3(CC[C@]2(O)C1)C(=O)c1c(O)cccc1[C@H]3O`: 4.27; `CC1=C[C@@H](O)[C@H]2[C@](O)(CC[C@]34O[C@]23[C@@H](O)c2cccc(O)c2C4=O)C1`: 5.77.
As to `Cc1ccc2c(c1)CC[C@]1(S[C@]34CCc5cc(C)ccc5[C@]3(O)[C@@H](O)c3cccc(O)c3C4=O)C(=O)c3c(O)cccc3[C@H](O)[C@@]21O`, the pIC50 is 5.21.
